Assays:
[1] = test system: adipocyte-differentiated human adipose stem cells; test: Effect of GSK3B inhibitor on dexamethasone-induced circadian gene expression profiles of human ASCs (qRT-PCR); format: cell-based; details: 30 μM in serum-free media after 2 hr 1 μM dexamethasone, FIG. 12
Method: Treatment of human adipose derived stem cells with dexamethasone was shown above to induce a circadian rhythm in vitro, and studies were conducted to see if this induction would be blocked by the addition of a glycogen synthase kinase 3 beta inhibitor. Confluent cultures of human ASCs were induced by exposure to 1 micromolar dexamethasone for a period of 2 hr. The medium was changed to either serum-free media (SF), or serum-free media with 30 μM SB415286 (SB415, an inhibitor of glycogen synthase kinase 3 beta). Individual cultures were harvested for total RNA at the indicated times and used for qRT-PCR analysis of gene expression of Bmal1, Per3, and Rev-erbα, and normalized relative to the corresponding Cyclophilin B levels.

[2] = test system: undifferentiated human ASCs; test: Circadian gene expression induction in undifferentiated human ASCs (qRT-PCR); format: cell-based; details: for Rev-erbα and Rev-erbβ expression zenith, time: three donors
Description: Human Adipose-Derived Stem Cell (ASCs) Isolation and Expansion. All protocols were reviewed and approved by the Pennington Biomedical Research Center Institutional Research Board (IRB; Baton Rouge, La.) prior to the study. Liposuction aspirates from subcutaneous adipose tissue sites were obtained from female subjects undergoing elective procedures in local plastic surgical offices. Tissues were washed 3-4 times with phosphate-buffered saline (PBS) and suspended in an equal volume of PBS supplemented with 1% bovine serum and 0.1% collagenase type I (Worthington Biochemical Corporation, Lakewood, N.J.) prewarmed to 37° C. The tissue was then placed in a shaking water bath at 37° C. with continuous agitation for 60 min and centrifuged for 5 min at 300-500×g at room temperature. The supernatant, containing mature adipocytes, was aspirated. The pellet was identified as the stromal vascular fraction (SVF). Portions of the SVF were resuspended in cryopreservation medium (10% dimethylsulfoxide, 10% DMEM/F 12 Ham's, 80% fetal bovine serum), frozen at −80° C. in an ethanol-jacketed, closed container, and subsequently stored in liquid nitrogen. Portions of the SVF were used in colony forming unit assays (see below). The remaining cells of the SVF were suspended and plated immediately in T225 flasks in stromal medium (DMEM/F 12 Ham's, 10% fetal bovine serum (Hyclone, Logan, Utah), 100 U penicillin/100 μg streptomycin/0.25 μg Fungizone) at a density of 0.156 ml of tissue digest/sq cm of surface area for expansion and culture. This initial passage of the primary cell culture was referred to as “Passage 0” (P0). […] The cells were passaged by trypsin (0.05%) digestion and plated at a density of 5,000 cells/cm^2 (“Passage 1”). Cell viability and numbers at the time of passage were determined by trypan blue exclusion and hemacytometer cell counts. Cells were passaged repeatedly after achieving a density of 75-90% (approximately 6 days in culture) until Passage 2.
Circadian Induction: The medium was removed from confluent cultures of undifferentiated or adipocyte-differentiated human ASCs in 6 well plates and replaced with DMEM/Ham's F12 medium and 100 U penicillin/100 μg streptomycin/0.25 μg Fungizone alone or supplemented with one of the following: 30% FBS, 1 μM dexamethasone, or 5 μM rosiglitazone. The ASCs were exposed to the inductive agents for 2 hr. A single plate under each condition was harvested for total RNA after 1 hr of induction. After 2 hr, the medium in the remaining plates was replaced with serum free DMEM/Ham's F12 medium and 100 U penicillin/100 μg streptomycin/0.25 μg Fungizone alone.
Quantitative Real-time RT-PCR (qRT-PCR) for Human ASCs: Total RNA was purified from the ASCs as described above for mouse tissues using TriReagent (Molecular Research Center) according to the manufacturer's specifications. Approximately 2 μg of total RNA was reverse transcribed using Moloney Murine Leukemia Virus Reverse Transcriptase (MMLV-RT; Promega), with Oligo dT at 42° C. for 1 hr in a 20 μL reaction. Primers for genes of interest (listed in Table 2) were identified using Primer Express software (Applied Biosystems). All primers were based on the sequence of the corresponding human mRNA and were designed to amplify across at least one exon/intron junction. qRT-PCR was performed on diluted cDNA samples with SYBR® Green PCR Master Mix (Applied Biosystems) using the 7900 Real Time PCR system (Applied Biosystems) under universal cycling conditions (95° C. for 10 min; 40 cycles of 95° C. for 15 sec; then 60° C. for 1 min). All results were normalized relative to a Cyclophilin B expression control.
Periodicity Analysis: Periodicity of the circadian data obtained by qRT-PCR was tested with Time Series Analysis-Single Cosinor v. 6.0 software (Expert Soft Technologie). […] Model was also tested for validity at the 0.950 probability level (ANOVA).

[3] = test system: adipocyte-differentiated human ASCs; test: Circadian gene expression induction in adipocyte-differentiated human ASCs (qRT-PCR); format: cell-based
Description: Human Adipose-Derived Stem Cell (ASCs) Isolation and Expansion. All protocols were reviewed and approved by the Pennington Biomedical Research Center Institutional Research Board (IRB; Baton Rouge, La.) prior to the study. Liposuction aspirates from subcutaneous adipose tissue sites were obtained from female subjects undergoing elective procedures in local plastic surgical offices. Tissues were washed 3-4 times with phosphate-buffered saline (PBS) and suspended in an equal volume of PBS supplemented with 1% bovine serum and 0.1% collagenase type I (Worthington Biochemical Corporation, Lakewood, N.J.) prewarmed to 37° C. The tissue was then placed in a shaking water bath at 37° C. with continuous agitation for 60 min and centrifuged for 5 min at 300-500×g at room temperature. The supernatant, containing mature adipocytes, was aspirated. The pellet was identified as the stromal vascular fraction (SVF). Portions of the SVF were resuspended in cryopreservation medium (10% dimethylsulfoxide, 10% DMEM/F 12 Ham's, 80% fetal bovine serum), frozen at −80° C. in an ethanol-jacketed, closed container, and subsequently stored in liquid nitrogen. Portions of the SVF were used in colony forming unit assays (see below). The remaining cells of the SVF were suspended and plated immediately in T225 flasks in stromal medium (DMEM/F 12 Ham's, 10% fetal bovine serum (Hyclone, Logan, Utah), 100 U penicillin/100 μg streptomycin/0.25 μg Fungizone) at a density of 0.156 ml of tissue digest/sq cm of surface area for expansion and culture. This initial passage of the primary cell culture was referred to as “Passage 0” (P0). Following the first 48 hr of incubation at 37° C. at 5% CO2, the cultures were washed with PBS and maintained in Stromal Media until they achieved 75-90% confluence (approximately 6 days in culture). The cells were passaged by trypsin (0.05%) digestion and plated at a density of 5,000 cells/cm^2 (“Passage 1”). Cell viability and numbers at the time of passage were determined by trypan blue exclusion and hemacytometer cell counts. Cells were passaged repeatedly after achieving a density of 75-90% (approximately 6 days in culture) until Passage 2. […]
Quantitative Real-time RT-PCR (qRT-PCR) for Human ASCs: Total RNA was purified from the ASCs as described above for mouse tissues using TriReagent (Molecular Research Center) according to the manufacturer's specifications. […]

bipolar patients = details: A. Fagiolini et al., 2002, 2003; cited from earlier work
[4] = 1 μM for 2 hr, then serum free medium, four donors, FIG. 8B
[5] = undifferentiated ASCs, 2 hr exposure
[6] = adipocyte-differentiated vs undifferentiated ASCs

## O=C1NC(=O)C(c2ccccc2[N+](=O)[O-])=C1Nc1ccc(O)c(Cl)c1 [SB415286]
[1]
  effect on circadian cycle of gene expression: shifted and lengthened
[1]; vs serum-free media alone
  mRNA induction profile delayed and shifted (Bmal1, Per3, Rev-erb alpha): 6 to 9 h

## C[C@@H]1C[C@H]2[C@@H]3CCC4=CC(=O)C=C[C@]4(C)[C@@]3(F)[C@@H](O)C[C@]2(C)[C@@]1(O)C(=O)CO [dexamethasone]
[2]; [4]
  Bmal1 peak levels, first peak, time following induction: 16 to 20 h
  Bmal1 peak levels, second peak, time following induction: 40 h
  Per1, Per3, and Cry2 expression peaks, time after induction: 28 to 32 h
  immediate-early induction of Per1, Per3, and Cry2 mRNAs, time after induction: 1 to 4 h
[2]; 1 μM for 2 hr, four donors
  phase shift of Bmal1 relative to Per1, Per3, and Cry2: 8 to 12 h
[2]; 1 μM for 2 hr, four donors, FIG. 8B
  Rev-erbα peak levels, time post induction: 24 h
[2]; [5]
  Rev-erbα and Rev-erbβ expression zenith, time: 24 h
[3]; adipocyte-differentiated ASCs, 2 hr exposure, three donors
  Per 3 subsequent peak, time: 20 to 24 h
[3]; [6]
  Rev-erbα and Rev-erbβ phase-advance relative to the undifferentiated ASCs: ~8 h

## [Cl-].[Li+] [lithium chloride]
Bipolar patients
  weight change under pharmacotherapy: gain weight rapidly and become obese

## CN(CCOc1ccc(CC2SC(=O)NC2=O)cc1)c1ccccn1 (stereo not shown) [thiazolidinedione, rosiglitazone]
[2]; [5]
  Per 3 immediate early response: Neither 30% serum nor thiazolidinedione initiated an immediate early response
  Rev-erbα and Rev-erbβ expression zenith, time: 24 h
[3]; [6]
  Per 3 peak expression earlier in adipocyte-differentiated than in undifferentiated ASCs: approximately 4 hr
  Rev-erbα and Rev-erbβ phase-advance relative to the undifferentiated ASCs: ~8 h
